Source: article PMC4769088, “Antifungal Activity and Action Mechanism of Histatin 5-Halocidin Hybrid Peptides against Candida ssp” (PLoS ONE, 2016)
Where a SMILES comes first, the peptide text is derived from it. Bridges are numbered along the chain shown (N, C = ends). Roman numbers before positions name the chains, in order.

Assays:
C. tropicalis = test: Broth dilution assay (MIC); assay type: cell-based, Candida tropicalis
Description: (§1) To determine the candidacidal activity of the peptides, we used Candida strains obtained from the Culture collection of antimicrobial resistant microbes at Seoul Women’s University in Korea. These included three Candida albicans (CCARM 14020, 14021, 14022), Candida guillermondi and Candida tropicalis. In addition, Candida albicans SC5413 was kindly provided by Dr Jeong-Yoon Kim at the Department of Microbiology & Molecular Biology, Chungnam University, Korea. Yeast were cultured overnight at 30°C in 10 ml of yeast extract-peptone-dextrose (YPD) broth (Qbiogene), then diluted in 10 ml of YPD broth to OD600 = 0.2 and grown for an additional 4 h with shaking at 30°C until OD600 = 0.8 in order to obtain mid-log phase cultures. The peptides (Hst 5, P113, HHP1, HHP2, PH1, PH2, di-PH1, di-PH2, WP1, di-WP2, di-15Hc and di-18Hc) in this study were synthesized by using standard solid-phase synthesis protocols and were purified by reversed-phase high-performance liquid chromatography at Anygen Inc. (Korea). FITC-labeled peptides (F-Hst5, F-P113, F-HHP1, F-di-PH2, F-di-WP2 and F-di-18Hc) were also synthesized by 6-aminohexnoic acid linker at Anygen (Korea) for confocal experiments.
The candidacidal activities of the peptides were tested by using standard microdilution plate assays, radial diffusion assays and broth dilution assay slightly modified from the procedure recommended by the National Committee for Clinical Laboratory Standards. For the candidacidal assays, C. albicans cells were grown in YPD medium and washed twice with 10 mM sodium phosphate buffer (NaPB; Na2HPO4, NaH2PO4, pH 7.4). The cells (1 x 10^6) were then mixed with different concentrations of peptides and incubated at 30°C with constant shaking for 60 min. For energy depletion experiments, cells were pre-incubated with 10 mM NaPB containing 5 mM NaN3 at 30°C for 60 min before the addition of peptides. The cell suspensions were diluted in 10 mM NaPB and aliquots of 500 cells were spread onto YPD agar plates then incubated for 24 h at 30°C to visualize the surviving colonies. Cell survival was expressed as a percentage of that for the control, and the loss of viability was calculated as [1 x (number of colonies from peptide-treated cells/number of colonies from control cells)] x 100. Candidacidal assays were performed in triplicate. For the radial diffusion assay, C. albicans cells were grown in YPD medium overnight and washed twice with 10 mM NaPB. […] The clear-zone diameters were measured to the nearest 0.1 mm and graphed against the peptide concentration. […] The numbers of yeasts were counted using a hemocytometer. […] The antifungal activities were evaluated after 24 h of incubation at 30°C by the observation of visible turbidity the wells. […]

[1] = system: all tested Candida strains; assay type: cell-based; details: 4 h
Description: as §1
The candidacidal activities of the peptides were tested by using standard microdilution plate assays, radial diffusion assays and broth dilution assay slightly modified from the procedure recommended by the National Committee for Clinical Laboratory Standards. For the candidacidal assays, C. albicans cells were grown in YPD medium and washed twice with 10 mM sodium phosphate buffer (NaPB; Na2HPO4, NaH2PO4, pH 7.4). The cells (1 x 10^6) were then mixed with different concentrations of peptides and incubated at 30°C with constant shaking for 60 min. For energy depletion experiments, cells were pre-incubated with 10 mM NaPB containing 5 mM NaN3 at 30°C for 60 min before the addition of peptides. The cell suspensions were diluted in 10 mM NaPB and aliquots of 500 cells were spread onto YPD agar plates then incubated for 24 h at 30°C to visualize the surviving colonies. Cell survival was expressed as a percentage of that for the control, and the loss of viability was calculated as [1 x (number of colonies from peptide-treated cells/number of colonies from control cells)] x 100. Candidacidal assays were performed in triplicate. For the radial diffusion assay, C. albicans cells were grown in YPD medium overnight and washed twice with 10 mM NaPB. Washed yeast-phase C. albicans cells (1 x 10^6 CFU) were trapped in thin underlay gels containing 9 mM sodium phosphate, 1 mM sodium citrate buffer, 1% (wt/vol) agarose (A6013; Sigma), and 0.3 mg of Sabouraud dextrose broth (Difco)/ml. After incubation at 37°C for 3 h, a 10 ml overlay gel of 1% agarose and 6% Sabouraud dextrose broth was poured on the underlay gel and then the plates were incubated overnight at 37°C. The clear-zone diameters were measured to the nearest 0.1 mm and graphed against the peptide concentration. Zone diameters were expressed in units (0.1 mm = 1 unit). For the broth dilution assay, the Candida strains were cultured in LYM broth for 18 h at 30°C. The numbers of yeasts were counted using a hemocytometer. Stock peptide solutions were prepared to a concentration of 320 μg/ml in distilled water, and were then serially diluted twofold, to 5 μg/ml. 100 μl aliquots of the diluted culture media containing candida cells (1 x 10^3) were dispensed into the wells of 96-well polypropylene microtiter plates (Costar 3879, Corning, NY), to which peptide solution (11 μl) was then added. In the experiments conducted to assess the candidacidal activity of peptides in the presence of salt, we used LYM supplemented with 150 mM NaCl for the culture medium, which was mixed with the peptide solution. The antifungal activities were evaluated after 24 h of incubation at 30°C by the observation of visible turbidity the wells. […]

MIC values [1] | increase in MIC against C. tropicalis at 150 mM salt (C. tropicalis; 150 mM NaCl versus no salt) | Compound | killing activities against C. tropicalis in 150 mM NaCl salt (C. tropicalis)
– | – | CC(C)C[C@H](NC(=O)CNC(=O)[C@H](Cc1c[nH]cn1)NC(=O)[C@H](Cc1c[nH]cn1)NC(=O)[C@H](CC(C)C)NC(=O)[C@H](CC(C)C)NC(=O)[C@H](C)NC(=O)[C@H](CC(N)=O)NC(=O)[C@H](CC(C)C)NC(=O)[C@@H](N)Cc1c[nH]c2ccccc12)C(=O)N[C@@H](CC(N)=O)C(=O)N[C@@H](CSSC[C@H](NC(=O)[C@H](CC(N)=O)NC(=O)[C@H](CC(C)C)NC(=O)CNC(=O)[C@H](Cc1c[nH]cn1)NC(=O)[C@H](Cc1c[nH]cn1)NC(=O)[C@H](CC(C)C)NC(=O)[C@H](CC(C)C)NC(=O)[C@H](C)NC(=O)[C@H](CC(N)=O)NC(=O)[C@H](CC(C)C)NC(=O)[C@@H](N)Cc1c[nH]c2ccccc12)C(=O)N[C@@H](C)C(=O)N[C@@H](CCCCN)C(=O)NCC(=O)N[C@H](C(=O)N[C@@H](CC(C)C)C(=O)N[C@@H](C)C(N)=O)C(C)C)C(=O)N[C@@H](C)C(=O)N[C@@H](CCCCN)C(=O)NCC(=O)N[C@H](C(=O)N[C@@H](CC(C)C)C(=O)N[C@@H](C)C(N)=O)C(C)C [di-18Hc, reference compound] (I: H-WLNALLHHGLNCAKGVLA-NH2 / II: H-WLNALLHHGLNCAKGVLA-NH2; disulfide I:12-II:12 (inferred); N-terminus assumed) | retained
1 to 2 µg/mL | 2 fold | CC(C)C[C@H](NC(=O)CNC(=O)[C@H](Cc1c[nH]cn1)NC(=O)[C@H](Cc1c[nH]cn1)NC(=O)[C@H](CCCNC(=N)N)NC(=O)[C@H](CCCCN)NC(=O)[C@H](C)N)C(=O)N[C@@H](CC(N)=O)C(=O)N[C@@H](CSSC[C@H](NC(=O)[C@H](CC(N)=O)NC(=O)[C@H](CC(C)C)NC(=O)CNC(=O)[C@H](Cc1c[nH]cn1)NC(=O)[C@H](Cc1c[nH]cn1)NC(=O)[C@H](CCCNC(=N)N)NC(=O)[C@H](CCCCN)NC(=O)[C@H](C)N)C(=O)N[C@@H](C)C(=O)N[C@@H](CCCCN)C(=O)N[C@@H](Cc1ccccc1)C(=O)N[C@@H](Cc1c[nH]cn1)C(N)=O)C(=O)N[C@@H](C)C(=O)N[C@@H](CCCCN)C(=O)N[C@@H](Cc1ccccc1)C(=O)N[C@@H](Cc1c[nH]cn1)C(N)=O [di-PH2] (I: H-AKRHHGLNCAKFH-NH2 / II: H-AKRHHGLNCAKFH-NH2; disulfide I:9-II:9 (inferred); N-terminus assumed) | retained
2 to 4 µg/mL | – | CC(C)C[C@H](NC(=O)[C@@H](N)Cc1c[nH]c2ccccc12)C(=O)N[C@@H](CC(N)=O)C(=O)N[C@@H](C)C(=O)N[C@@H](CCCCN)C(=O)N[C@@H](CCCNC(=N)N)C(=O)N[C@@H](Cc1c[nH]cn1)C(=O)N[C@@H](Cc1c[nH]cn1)C(=O)NCC(=O)N[C@@H](Cc1ccc(O)cc1)C(=O)N[C@@H](CCCCN)C(=O)N[C@@H](CSSC[C@H](NC(=O)[C@H](CCCCN)NC(=O)[C@H](Cc1ccc(O)cc1)NC(=O)CNC(=O)[C@H](Cc1c[nH]cn1)NC(=O)[C@H](Cc1c[nH]cn1)NC(=O)[C@H](CCCNC(=N)N)NC(=O)[C@H](CCCCN)NC(=O)[C@H](C)NC(=O)[C@H](CC(N)=O)NC(=O)[C@H](CC(C)C)NC(=O)[C@@H](N)Cc1c[nH]c2ccccc12)C(=O)N[C@@H](CCCCN)C(=O)N[C@@H](Cc1ccccc1)C(=O)N[C@@H](Cc1c[nH]cn1)C(N)=O)C(=O)N[C@@H](CCCCN)C(=O)N[C@@H](Cc1ccccc1)C(=O)N[C@@H](Cc1c[nH]cn1)C(N)=O [di-WP2] (I: H-WLNAKRHHGYKCKFH-NH2 / II: H-WLNAKRHHGYKCKFH-NH2; disulfide I:12-II:12 (inferred); N-terminus assumed) | retained
